“And” between values parts separate entries of the source, which are not always exact repeats. Equal entries are not always repeated. “Also recorded” adds a separate entry of the source. Where two headings read alike, the source gives them in different places.
Key:
[1] = system: solid tumors harboring FGFR alterations; test: Antitumor activity, RECIST v1.0 tumor evaluations; assay type: in vivo, human
serum phosphate levels = test: Pharmacodynamics: serum phosphate levels; assay type: in vivo, human; details: BGJ398 treatment; consistently at doses ≥ 100 mg
[2] = Pharmacokinetics: BGJ398 plasma concentrations; assay type: in vivo, human
[3] = system: patients with advanced solid tumors harboring FGFR genetic alterations; test: Patient disposition and treatment exposure; assay type: in vivo
[4] = on the basis of preclinical data ref 20; cited from earlier work
[5] = system: patients with advanced solid tumors harboring FGFR genetic alterations
FGFR4 = details: read-out: Half maximal inhibitory concentration; cited from earlier work
[6] = system: RT112 human tumor-derived FGFR gene fusion bladder cancer cell line; details: read-out: Half maximal inhibitory concentration; cited from earlier work
[7] = 36 patients with FGFR1-amplified sqNSCLC, ≥ 100 mg continuously
[8] = eight patients with FGFR3-mutated bladder/urothelial cancer, ≥ 100 mg

CCN1CCN(c2ccc(Nc3cc(N(C)C(=O)Nc4c(Cl)c(OC)cc(OC)c4Cl)ncn3)cc2)CC1 [BGJ398, 3-(2,6-dichloro-3,5-dimethoxy-phenyl)-1-{6-[4-(4-ethyl-piperazin-1-yl)-phenylamino]-pyrimidin-4-yl}−1-methyl-urea]
Patients continuing to receive treatment for > 8 weeks ([1]; 31 sqNSCLC patients treated at 125 mg continuously): 12 | Disease control rate (DCR: PR + SD) [1, 7]: 50% | Patients achieving PRs (overall response rate) [1, 7]: 11.1% and 11% | Patients with SD [1, 7]: 14 patients | Patients with reduced tumor burden ([1]; 85 patients treated at ≥ 100 mg with evaluable data (28 patients)): 32.9% | Time responder remained on study ([1]; FGFR1-amplified sqNSCLC, unconfirmed PR): 26.3 weeks | Patients with best overall response of SD ([1]; all patients, N = 132): 42 | Tumor burden change ([1]; all three patients with FGFR2-altered cholangiocarcinoma with pre- and post-treatment assessments): reduced tumor burden | Patients with best response of SD ([1]; breast cancer, ≥ 100 mg, 10 of 32 patients): 31% | Partial responses ([1]; doses ≥ 100 mg, FGFR1-amplified sqNSCLC and FGFR3-mutant bladder/urothelial cancer, six confirmed): seven | Disease control rate (DCR) [1, 8]: 75% | Patients achieving PRs (overall response rate) [1, 8]: 37.5% and 38% | Patients with reduced tumor burden [1, 8]: 62.5% | Patients with disease control ([1]; of 132 patients across all doses): 49 | Serum phosphate levels (serum phosphate levels): increased serum phosphate levels; also recorded: Elevated serum phosphate levels | Increase of mean AUC from 0 to 24 hours on day 1 ([2]; from 20 to 150 mg once daily): approximately nine | Tmax ([2]; human, plasma, oral, Median time to reach maximum plasma concentration, after a single dose): 2 to 3 h | Discontinuation because of death ([3]; N = 132): 3.8% | Discontinuation because of disease progression ([3]; N = 132): 67.4% | Discontinuation because of AEs ([3]; human, in vivo): 12.9% | Predicted efficacious level (unbound BGJ398 concentration) [4]: […] | Dose-limiting toxicity observed ([5]; 100 mg, n = 1): grade 3 aminotransferase elevations; also recorded: grade 3 increases in ALT/AST | Dose-limiting toxicity observed ([5]; 150 mg, n = 1 each): grade 1 corneal toxicity; also recorded: grade 3 aminotransferase elevations; also recorded: grade 3 increases in ALT/AST | Reversibility of DLTs ([5]; after BGJ398 interruption and/or concomitant medication): reversible | Patients who died while receiving treatment or within 28 days of the last dose ([5]; all doses, N = 132): Fifteen | Patients experiencing DLTs ([5]; dose-determining set, four of 34 patients, cycle 1): 11.8% | AE leading to discontinuation, patients ([5]; human, in vivo): 13.6% | AE requiring dose adjustment or interruption, patients ([5]; human, in vivo): 59.1% | Asymptomatic hyperphosphatemia suspected to be treatment related, patients ([5]; human, in vivo): 72.7% | At least one AE suspected to be treatment related, patients ([5]; human, in vivo): 95.5% | Eye-related AE leading to discontinuation, patients ([5]; human, in vivo): 4.5% | Grade 3/4 AE suspected to be treatment related, patients ([5]; human, in vivo): 31.1% | Grade 3/4 TEAEs, patients ([5]; human, in vivo): 52.3% | Median duration of dose interruption ([5]; human, in vivo): […] | Median time to first dose interruption ([5]; human, in vivo): 22 days | Treatment-emergent AEs (TEAEs), patients ([5]; human, in vivo): 99.2% | Treatment-related alopecia, patients ([5]; human, in vivo): 23.5% | Treatment-related decreased appetite, patients ([5]; human, in vivo): 28.8% | Treatment-related diarrhea, patients ([5]; human, in vivo): 27.3% | Treatment-related fatigue, patients ([5]; human, in vivo): 25.0% | Treatment-related nausea, patients ([5]; human, in vivo): 22.0% | Treatment-related stomatitis, patients ([5]; human, in vivo): 36.4% | Dose-limiting toxicity observed ([5]; in vivo): hyperphosphatemia | Deaths attributed to PD or to related AEs ([5]; of fifteen deaths): 11 | Deaths suspected to be BGJ398 related ([5]; of fifteen deaths): One | Maximum tolerated dose (MTD) ([5]; oral, once daily): 125 mg | Recommended phase II dose (RP2D) ([5]; oral, once daily, 3-weeks-on/1-week-off schedule): 125 mg | IC50 (FGFR4): […] | IC50 [6]: 4 nM
